In US8778966B2, “Quinolinone derivatives as PARP and tank inhibitors” (Janssen Pharmaceutica, NV, priority 2007, dated 2014):
Where two headings read alike, the source gives them in different places.

Columns and labels:
[1] = system: tubulin; experiment: Tubulin polymerization assay; type: biochemical; details: tested at 20 μM and 5 μM
Outline: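 Cytoskeleton kit tubulin was run in a 10 µl final volume at 37 °C, with fluorescence read every minute for 1 h. Polymerization was taken as the maximum slope (4-point linear regression) and expressed as % of no-compound control. Compounds were tested at 20 µM, then at 5 µM if inhibition exceeded 50%, and scored by % inhibition.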

[2] = system: HCT116 cells; experiment: Antiproliferative activity, Alamar Blue assay, HCT116 cells; type: cell-based, human; set-up: key to HCT116 antiproliferative activity pIC50: pIC50 = -log IC50 (IC50: conc. reducing growth to 50% of control); details: for IC50: Homo sapiens, HCT-116, HCT116 cells, read-out: HCT116 antiproliferative activity pIC50 (converted)
Outline: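 HCT116 cells seeded, adhered 24 h, then exposed to compound for 4 days; Alamar Blue (resazurin) added for 4 h at 37 °C, fluorescence read at 540/590 nm. Viability as % of untreated control, triplicate wells; IC50 by probit analysis, reported as pIC50.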

[3] = system: PC-3 cells; experiment: Antiproliferative activity, Alamar Blue assay, PC-3 cells; type: cell-based, human; details: for IC50: Homo sapiens, PC-3, PC3 cells, read-out: PC3 antiproliferative activity pIC50 (converted)
Outline: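 PC-3 cells seeded at 4.5×10^3 cells/ml, left to adhere 24 hr, then exposed to compound for 4 days. Resazurin (Alamar Blue) added for a further 24 hrs at 37° C; fluorescence read at 540/590 nm. Viability as % of untreated control, mean of 3 wells; IC50 by probit analysis, reported as pIC50.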

Row | melting point [°C] | HCT116 antiproliferative activity pIC50 ([2]; HCT116 cells, Alamar Blue) | PC3 antiproliferative activity pIC50 ([3]; PC3 cells, Alamar Blue) | IC50 ([2]; Alamar Blue) [nM] | IC50 ([3]; Alamar Blue) [nM] | IC50 [2] [nM] | IC50 [3] [nM] | Compound | tubulin polymerisation score [1]
1 | 121 |  |  |  |  |  |  | CCc1cc2ccc(C(C)(C#N)Cc3cccc(C#N)n3)cc2[nH]c1=O (single isomer, unassigned) [Compound 206] | 1 (a compound showing 0 to 50% inhibition at 20 μM is reported as score 1)
2 | 133 | 7.0 | 6.8 |  |  |  |  | CCc1cc2ccc(C(C)(C#N)Cc3cccc(C#N)n3)cc2[nH]c1=O (single isomer, unassigned) [Compound 207] | 3 (a compound showing more than 50% inhibition at 5 μM is reported as score 3)
3 | 125 |  |  | 10000 | 10000 |  |  | C#Cc1cccc(C[C@](C)(C#N)c2ccc3cc(CC)c(=O)[nH]c3c2)c1 [Compound 2] | 1 (a compound showing 0 to 50% inhibition at 20 μM is reported as score 1)
4 | 178 |  |  |  |  | > 10000 | > 10000 | CC(C)c1cc2ccc(C(C)(C#N)Cc3ccccc3)cc2[nH]c1=O (stereo not shown) [Compound 38] | 
5 | 194 |  |  |  |  | > 10000 | > 10000 | CC(=O)c1cc2ccc(C(C)(C#N)Cc3ccccc3)cc2[nH]c1=O (stereo not shown) [Compound 39] | 
6 | 149 |  |  | 5010 | 3160 |  |  | CCc1cc2ccc(C(C)(C#N)Cc3cccc(CCC#N)c3)cc2[nH]c1=O (stereo not shown) [Compound 169] | 
7 | 130 |  |  | 501 | 631 |  |  | C=Cc1cccc(CC(C)(C#N)c2ccc3cc(CC)c(=O)[nH]c3c2)c1 (stereo not shown) [Compound 172] | 
8 | 202 |  |  | 631 | 1000 |  |  | CCc1cc2cc(F)c(C(C)(C#N)Cc3cccc(C#N)c3)cc2[nH]c1=O (stereo not shown) [Compound 175] | 
9 | 204 |  |  | 2510 | 3980 |  |  | CCc1c(C)c2ccc(C(C)(C#N)Cc3cccc(C#N)c3)cc2[nH]c1=O (stereo not shown) [Compound 181] | 
10 | 130 |  |  | 6310 | 5010 |  |  | CCc1cc2cc(OCCOC)c(C(C)(C#N)Cc3cccc(C#N)c3)cc2[nH]c1=O (stereo not shown) [Compound 182] | 
11 | 182 |  |  | 63.1 | 316 |  |  | CCc1cc2ccc(C(C)(C#N)Cc3cccc(C#CCO)c3)cc2[nH]c1=O (stereo not shown) [Compound 183] | 
12 | 176 |  |  | 3160 | 7940 |  |  | CCc1cc2ccc(C(F)(C#N)Cc3ccccc3)cc2[nH]c1=O (stereo not shown) [Compound 187] | 
13 | 136 |  |  | 1260 | 3160 |  |  | CCc1cc2ccc(C(C)(C#N)CN(C)Cc3ccccc3)cc2[nH]c1=O (stereo not shown) [Compound 189] | 
14 | 198 |  |  | 2000 | 2000 |  |  | CCc1cc2ccc(C(C)(C#N)C(C)c3ccccc3)cc2[nH]c1=O (stereo not shown) [Compound 198] | 
15 | 250 |  |  | 10000 | 10000 |  |  | CCc1cc2ccc([C@](C)(C#N)[C@@H](C)c3ccccc3)cc2[nH]c1=O [Compound 199] | 
16 | 140 |  |  | 316 | 501 |  |  | C#Cc1cccc(CC(C)(C#N)c2ccc3cc(CC)c(=O)[nH]c3c2)n1 (stereo not shown) [Compound 211] | 
17 | 115 |  |  | 501 | 501 |  |  | CCc1cc2ccc(C(C)(C#N)Cc3cccc(N(C)C)n3)cc2[nH]c1=O (stereo not shown) [Compound 213] | 
18 | 131 |  |  | 501 | 631 |  |  | CCc1cc2ccc(C(C)(C#N)Cc3cccc(I)n3)cc2[nH]c1=O (stereo not shown) [Compound 214] | 
19 | 60 |  |  | 1580 | 6310 |  |  | CCOC(=O)c1cccc(CC(C)(C#N)c2ccc3cc(CC)c(=O)[nH]c3c2)n1 (stereo not shown) [Compound 215] | 
20 | 153 |  |  | 2000 | 10000 |  |  | CCc1cc2ccc(C(C)(C#N)Cc3cccc(COC)n3)cc2[nH]c1=O (stereo not shown) [Compound 216] | 
21 | 65 |  |  | 1260 | 1000 |  |  | CCc1cc2ccc(C(C)(C#N)Cc3cccc(CN)n3)cc2[nH]c1=O (stereo not shown) [Compound 221] | 
